Read-outs that look alike come from different tables or passages of the source.
Columns and labels:
Format in all cases: cell-based
M3 muscarinic receptor = target: T1, M3 muscarinic receptor (Homo sapiens, UniProt P20309); assay: Functional mobilization of intracellular calcium (FLIPR) in CHO cells expressing M3; conditions: for EC50: CHO cells expressing M3, FLIPR calcium; for Emax: CHO; for M3 Activity: CHO cells expressing M3, FLIPR calcium assay
T1 construct: expressed in transfected cells; host or cells: CHO (M3-CHO)
T1 sequence (P20309 whole entry): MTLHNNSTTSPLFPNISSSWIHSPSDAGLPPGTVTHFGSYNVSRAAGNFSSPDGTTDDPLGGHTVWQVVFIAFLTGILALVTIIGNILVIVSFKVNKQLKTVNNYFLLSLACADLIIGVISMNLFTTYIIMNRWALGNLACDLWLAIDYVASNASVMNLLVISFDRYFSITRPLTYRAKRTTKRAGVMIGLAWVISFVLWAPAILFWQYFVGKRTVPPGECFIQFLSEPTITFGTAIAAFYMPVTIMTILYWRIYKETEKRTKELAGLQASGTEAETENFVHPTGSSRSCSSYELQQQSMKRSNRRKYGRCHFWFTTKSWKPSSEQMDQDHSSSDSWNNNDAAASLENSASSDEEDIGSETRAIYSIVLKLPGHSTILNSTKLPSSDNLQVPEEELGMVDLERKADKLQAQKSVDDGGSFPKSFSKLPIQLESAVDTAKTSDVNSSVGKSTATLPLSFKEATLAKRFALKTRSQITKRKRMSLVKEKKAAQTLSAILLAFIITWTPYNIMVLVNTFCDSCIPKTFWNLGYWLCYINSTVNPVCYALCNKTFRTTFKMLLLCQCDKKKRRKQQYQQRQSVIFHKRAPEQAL
Method in brief: (§1)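 Calcium flux is read on FLIPR over 60 sec at 488/540 nm in muscarinic-receptor CHO lines. Antagonist mode adds carbachol at EC80 after 15 min compound preincubation or with simultaneous co-application. Agonist mode adds compound alone. Cells carry Fluo-3 or Calcium 3 dye in probenecid-containing pH 7.4 buffer, 0.5% DMSO final.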

M4 muscarinic receptor = target: T2, M4 muscarinic receptor (Homo sapiens, UniProt P08173); assay: Functional mobilization of intracellular calcium (FLIPR) in CHO cells expressing M4; conditions: for EC50: CHO cells expressing M4, FLIPR calcium; for Emax: CHO; for M4 Activity: CHO cells expressing M4, FLIPR calcium assay
T2 construct: expressed in transfected cells; host or cells: CHO (M4-CHO)
T2 sequence (P08173 1-479): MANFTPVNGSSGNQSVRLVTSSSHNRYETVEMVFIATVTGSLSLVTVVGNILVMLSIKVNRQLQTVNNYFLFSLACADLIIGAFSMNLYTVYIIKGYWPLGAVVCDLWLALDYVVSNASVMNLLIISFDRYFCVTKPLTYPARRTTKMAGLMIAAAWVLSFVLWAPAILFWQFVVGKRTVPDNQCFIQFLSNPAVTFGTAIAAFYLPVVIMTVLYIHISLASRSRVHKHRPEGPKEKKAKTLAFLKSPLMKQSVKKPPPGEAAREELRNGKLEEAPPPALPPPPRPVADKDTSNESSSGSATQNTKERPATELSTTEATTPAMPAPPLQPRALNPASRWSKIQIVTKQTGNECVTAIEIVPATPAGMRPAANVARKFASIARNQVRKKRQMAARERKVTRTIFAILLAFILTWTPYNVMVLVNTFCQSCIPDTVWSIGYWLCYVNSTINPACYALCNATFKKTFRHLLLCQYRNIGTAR
Method in brief: as §1

M1 muscarinic receptor = target: T3, M1 muscarinic receptor (Homo sapiens, UniProt P11229); assay: Functional mobilization of intracellular calcium (FLIPR) in CHO cells expressing M1; conditions: for EC50: CHO cells expressing M1, FLIPR calcium; for Emax: CHO; for M1 Activity: CHO cells expressing M1, FLIPR calcium assay
T3 construct: expressed in transfected cells; host or cells: CHO (M1-CHO)
T3 sequence (P11229 1-460): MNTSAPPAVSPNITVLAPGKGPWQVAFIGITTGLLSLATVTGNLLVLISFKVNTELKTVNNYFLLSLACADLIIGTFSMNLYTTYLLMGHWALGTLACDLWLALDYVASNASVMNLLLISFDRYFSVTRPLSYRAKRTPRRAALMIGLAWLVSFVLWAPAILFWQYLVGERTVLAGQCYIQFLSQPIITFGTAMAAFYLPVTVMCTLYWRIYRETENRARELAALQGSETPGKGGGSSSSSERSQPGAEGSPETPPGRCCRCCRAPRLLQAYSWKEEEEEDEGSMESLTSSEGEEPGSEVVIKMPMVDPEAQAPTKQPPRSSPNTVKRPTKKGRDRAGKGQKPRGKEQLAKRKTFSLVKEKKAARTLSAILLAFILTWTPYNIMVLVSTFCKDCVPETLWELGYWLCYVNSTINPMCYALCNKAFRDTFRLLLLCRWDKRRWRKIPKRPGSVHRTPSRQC
Method in brief: as §1

M2 muscarinic receptor = target: T4, M2 muscarinic receptor (Homo sapiens, UniProt P08172); assay: Functional mobilization of intracellular calcium (FLIPR) in CHO cells expressing M2; conditions: for EC50: CHO cells expressing M2, FLIPR calcium; for Emax: CHO; for M2 Activity: CHO cells expressing M2, FLIPR calcium assay
T4 construct: expressed in transfected cells; host or cells: CHO (M2-CHO)
T4 sequence (P08172 1-466): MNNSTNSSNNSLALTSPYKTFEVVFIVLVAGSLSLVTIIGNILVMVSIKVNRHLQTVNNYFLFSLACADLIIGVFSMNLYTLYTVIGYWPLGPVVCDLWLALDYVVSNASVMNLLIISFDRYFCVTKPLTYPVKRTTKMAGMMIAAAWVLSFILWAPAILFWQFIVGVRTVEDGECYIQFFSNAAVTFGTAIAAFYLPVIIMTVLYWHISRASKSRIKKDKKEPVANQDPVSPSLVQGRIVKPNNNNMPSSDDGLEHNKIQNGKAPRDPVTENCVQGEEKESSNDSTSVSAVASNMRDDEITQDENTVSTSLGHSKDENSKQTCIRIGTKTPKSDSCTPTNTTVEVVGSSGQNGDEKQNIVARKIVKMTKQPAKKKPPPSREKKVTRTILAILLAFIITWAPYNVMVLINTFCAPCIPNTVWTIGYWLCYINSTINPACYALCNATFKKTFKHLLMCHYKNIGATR
Method in brief: as §1

[1] = 100% = maximum response obtained with the Carbachol control, read-out: M3 Efficacy
[2] = 100% = maximum response obtained with the Carbachol control, read-out: M4 Efficacy
[3] = 100% = maximum response obtained with the Carbachol control, read-out: M1 Efficacy
[4] = 100% = maximum response obtained with the Carbachol control, read-out: M2 Efficacy
[5] = 100% efficacy = maximum response obtained with the Carbachol control
[6] = 100% = maximum response obtained with the Carbachol control

SMILES | EC50 (M3 muscarinic receptor) [µM] | Emax (M3 muscarinic receptor; [1]) [%] | EC50 (M4 muscarinic receptor) [µM] | Emax (M4 muscarinic receptor; [2]) [%] | EC50 (M1 muscarinic receptor) [µM] | Emax (M1 muscarinic receptor; [3]) [%] | EC50 (M2 muscarinic receptor) [µM] | Emax (M2 muscarinic receptor; [4]) [%] | M3 Activity (M3 muscarinic receptor) | Emax (M3 muscarinic receptor; [5]) [%] | M4 Activity (M4 muscarinic receptor) | Emax (M4 muscarinic receptor; [5]) [%] | M1 Activity (M1 muscarinic receptor) | Emax (M1 muscarinic receptor; [5]) [%] | M2 Activity (M2 muscarinic receptor) | Emax (M2 muscarinic receptor; [5]) [%] | M3 Efficacy (M3 muscarinic receptor; [6]) | M4 Efficacy (M4 muscarinic receptor; [6]) | M1 Efficacy (M1 muscarinic receptor; [6]) | M2 Efficacy (M2 muscarinic receptor; [6])
CCN(C(=O)CC1CCCC1=O)[C@H]1CCC2(CCN(CCC(C)(C)C)CC2)c2ccccc21 (stereo partly drawn) [compound 7] | > 5 | < 25 | < 2 | 25 to 100 | 2 to 5 | 25 to 100 | > 5 | < 25 |  |  |  |  |  |  |  |  |  |  |  | 
CC(C)(C)OC(=O)N1CCC2(CC1)C[C@H](NC(=O)C1CCCC1)c1ccccc12 [compound 295] |  |  |  |  |  |  |  |  | + (activity was measured to be greater than 5.0 μM) | < 25 | + (activity was measured to be greater than 5.0 μM) | < 25 | + (activity was measured to be greater than 5.0 μM) | < 25 | + (activity was measured to be greater than 5.0 μM) | < 25 |  |  |  | 
CCC(=O)N[C@@H]1CCC2(CCN(CCC(C)(C)C)CC2)c2cc(F)ccc21 [compound 11] | > 5 | < 25 | < 2 | 25 to 100 | < 2 | 25 to 100 | > 5 | < 25 |  |  |  |  |  |  |  |  |  |  |  | 
COC(=O)CCCN1CCC2(CC[C@H](NC(C)=O)c3ccccc32)CC1 [compound 16] | > 5 | < 25 | > 5 | 25 to 100 | 2 to 5 | 25 to 100 | > 5 | < 25 |  |  |  |  |  |  |  |  |  |  |  | 
C[C@H](C(=O)N[C@H]1CCC2(CCN(CCC(C)(C)C)CC2)c2cc(F)ccc21)N1CCCC1=O [compound 52] | > 5 | < 25 | < 2 | 25 to 100 | < 2 | 25 to 100 | < 2 | < 25 |  |  |  |  |  |  |  |  |  |  |  | 
CN(C)C(=O)N[C@H]1CC2(CCN(C(=O)OC(C)(C)C)CC2)c2ccccc21 [compound 298] |  |  |  |  |  |  |  |  | + (activity was measured to be greater than 5.0 μM) | < 25 | + (activity was measured to be greater than 5.0 μM) | < 25 | + (activity was measured to be greater than 5.0 μM) | < 25 | + (activity was measured to be greater than 5.0 μM) | < 25 |  |  |  | 
C[C@@H](O)CC(=O)N[C@@H]1CCC2(CCN(CCC(C)(C)C)CC2)c2ccccc21 [compound 139] | > 5 | < 25 | < 2 | 25 to 100 | 2 to 5 | < 25 | > 5 | < 25 |  |  |  |  |  |  |  |  |  |  |  | 
CC(C)(C)CCN1CCC2(CC[C@@H](NC(=O)CCN3CCCC3=O)c3ccc(F)cc32)CC1 [compound 29] | > 5 | < 25 | < 2 | 25 to 100 | < 2 | 25 to 100 | < 2 | 25 to 100 |  |  |  |  |  |  |  |  |  |  |  | 
CC(=O)N[C@H]1CCC2(CCN(CCC(C)C)CC2)c2ccccc21 [compound 159] | > 5 | < 25 | < 2 | 25 to 100 | < 2 | 25 to 100 | > 5 | < 25 |  |  |  |  |  |  |  |  |  |  |  | 
COC(=O)CN1CCC2(CC1)C[C@H](NC(C)=O)c1ccccc12 [compound 233] |  |  |  |  |  |  |  |  | + (activity was measured to be greater than 5.0 μM) | < 25 | + (activity was measured to be greater than 5.0 μM) | < 25 | + (activity was measured to be greater than 5.0 μM) | 25 to 100 | + (activity was measured to be greater than 5.0 μM) | < 25 |  |  |  | 
CC(=O)N(C(C)C)[C@H]1CCC2(CCN(CCC(C)(C)C)CC2)c2cc(F)ccc21 [compound 86] | > 5 | < 25 | < 2 | 25 to 100 | < 2 | 25 to 100 | > 5 | < 25 |  |  |  |  |  |  |  |  |  |  |  | 
CC(=O)CCC(=O)N[C@H]1CCC2(CCN(CCC(C)(C)C)CC2)c2cc(F)ccc21 [compound 92] | > 5 | < 25 | < 2 | 25 to 100 | < 2 | 25 to 100 | < 2 | 25 to 100 |  |  |  |  |  |  |  |  |  |  |  | 
CC(=O)NCCC(=O)N[C@@H]1CCC2(CCN(CCC(C)(C)C)CC2)c2ccccc21 [compound 8] | > 5 | < 25 | < 2 | 25 to 100 | < 2 | 25 to 100 | 2 to 5 | < 25 |  |  |  |  |  |  |  |  |  |  |  | 
CCN(C(C)=O)[C@H]1CCC2(CCN(CCC(C)C)CC2)c2ccccc21 [compound 213] |  |  |  |  |  |  |  |  | + (activity was measured to be greater than 5.0 μM) | < 25 | +++ (activity was measured to be less than 2.0 μM) | 25 to 100 | ++ (activity was measured to be from 2.0 μM to 5.0 μM) | 25 to 100 | + (activity was measured to be greater than 5.0 μM) | < 25 |  |  |  | 
CC(=O)N[C@H]1CC2(CCN(CC(C)(C)C)CC2)c2ccccc21 [compound 243] |  |  |  |  |  |  |  |  | + (activity was measured to be greater than 5.0 μM) | < 25 | +++ (activity was measured to be less than 2.0 μM) | 25 to 100 | + (activity was measured to be greater than 5.0 μM) | 25 to 100 | + (activity was measured to be greater than 5.0 μM) | 25 to 100 |  |  |  | 
CC(=O)N[C@H]1CCC2(CCN(CCCC(F)(F)F)CC2)c2ccccc21 [compound 185] |  |  |  |  |  |  |  |  | + (activity was measured to be greater than 5.0 μM) | 25 to 100 | ++ (activity was measured to be from 2.0 μM to 5.0 μM) | 25 to 100 | ++ (activity was measured to be from 2.0 μM to 5.0 μM) | 25 to 100 | + (activity was measured to be greater than 5.0 μM) | < 25 |  |  |  | 
CC(=O)N[C@H](C)C(=O)N[C@@H]1CCC2(CCN(CCC(C)(C)C)CC2)c2ccccc21 [compound 14] | > 5 |  | < 2 |  | > 5 |  | 2 to 5 |  |  |  |  |  |  |  |  |  | + (efficacy was calculated to be less than 25%) | ++ (efficacy was calculated to be from 100% to 25%) | ++ (efficacy was calculated to be from 100% to 25%) | + (efficacy was calculated to be less than 25%)
CCC(=O)N1CCCC(C(=O)N[C@@H]2CCC3(CCN(CCC(C)(C)C)CC3)c3ccccc32)C1 (stereo partly drawn) [compound 13] | > 5 | < 25 | < 2 | 25 to 100 | > 5 | < 25 | > 5 | < 25 |  |  |  |  |  |  |  |  |  |  |  | 

From patent publication US8003660B2, “Modulators of muscarinic receptors” (Vertex Pharmaceuticals Incorporated, priority 2006, dated 2011)
